Experimental data reported in US20180000085A1, “USE OF PICOLINAMIDE COMPOUNDS WITH FUNGICIDAL ACTIVITY” (DOW AGROSCIENCES LLC, priority 2014, published 2018).

Key:
Puccinia triticina = experiment: Wheat brown rust (PUCCRT) disease control on wheat seedlings; type: in vivo; parameters: key to PUCCRT 3DC, HV activity at 100 ppm (% control rating) / PUCCRT disease control, 3DC / PUCCRT 1DP disease control rating, HV activity / PUCCRT 3DC disease control rating, HV activity / PUCCRT 3DC, LV activity at 125.1 g/H (% Control rating) / PUCCRT 1DP, LV activity at 125.1 g/H (% Control rating) / PUCCRT 3DC disease control rating, LV activity at 125.1 g/H / PUCCRT 1DP disease control rating, LV activity at 125.1 g/H / PUCCRT 3DC disease control rating, HV activity at 100 ppm / PUCCRT 1DP disease control rating, HV activity at 100 ppm / HV activity at 100 ppm PUCCRT 3DC (disease control rating) / LV activity at 125.1 g/H PUCCRT 1DP (disease control rating) / LV activity at 125.1 g/H PUCCRT 3DC (disease control rating): A: > 80; B: ≤ 80; C: Not Tested; D: No Activity Observed in the Reported Assay; details: for LV activity at 125.1 g/H PUCCRT 1DP (disease control rating) / LV activity at 125.1 g/H PUCCRT 3DC (disease control rating) / PUCCRT 1DP disease control rating, LV activity at 125.1 g/H / PUCCRT 3DC disease control rating, LV activity at 125.1 g/H / PUCCRT 1DP, LV activity at 125.1 g/H (% Control rating) / PUCCRT 3DC, LV activity at 125.1 g/H (% Control rating): low volume application; for LV activity at 125.1 g/H PUCCRT 1DP (disease control rating) / PUCCRT 1DP disease control rating, HV activity / PUCCRT 1DP, LV activity at 125.1 g/H (% Control rating): 1 Day Protectant; for LV activity at 125.1 g/H PUCCRT 1DP (disease control rating) / LV activity at 125.1 g/H PUCCRT 3DC (disease control rating) / PUCCRT 1DP disease control rating, HV activity / PUCCRT 3DC disease control rating, HV activity: wheat brown rust; for LV activity at 125.1 g/H PUCCRT 3DC (disease control rating) / PUCCRT 3DC disease control rating, HV activity / PUCCRT 3DC, LV activity at 125.1 g/H (% Control rating): 3 Day Curative; for PUCCRT 1DP disease control rating, HV activity / PUCCRT 3DC disease control rating, HV activity: HV application at 100 ppm; for PUCCRT 1DP disease control rating, LV activity at 125.1 g/H: 1 day protectant; for PUCCRT 3DC disease control rating, LV activity at 125.1 g/H: 3 day curative
Zymoseptoria tritici = experiment: Leaf blotch of wheat (SEPTTR) disease control on wheat seedlings; type: in vivo; parameters: key to SEPTTR 1DP, HV activity at 100 ppm (% control rating) / SEPTTR 3DC, HV activity at 100 ppm (% control rating) / SEPTTR disease control, 1DP / SEPTTR disease control, 3DC / SEPTTR 1DP disease control rating, HV activity / SEPTTR 3DC disease control rating, HV activity / SEPTTR 3DC, LV activity at 125.1 g/H (% Control rating) / SEPTTR 1DP, LV activity at 125.1 g/H (% Control rating) / SEPTTR 1DP disease control rating, LV activity at 125.1 g/H / SEPTTR 3DC disease control rating, LV activity at 125.1 g/H / SEPTTR 3DC disease control rating, HV activity at 100 ppm / SEPTTR 1DP disease control rating, HV activity at 100 ppm / HV activity at 100 ppm SEPTTR 3DC (disease control rating) / HV activity at 100 ppm SEPTTR 1DP (disease control rating) / LV activity at 125.1 g/H SEPTTR 1DP (disease control rating) / LV activity at 125.1 g/H SEPTTR 3DC (disease control rating): A: > 80; B: ≤ 80; C: Not Tested; D: No Activity Observed in the Reported Assay; details: for LV activity at 125.1 g/H SEPTTR 1DP (disease control rating) / LV activity at 125.1 g/H SEPTTR 3DC (disease control rating) / SEPTTR 1DP disease control rating, LV activity at 125.1 g/H / SEPTTR 3DC disease control rating, LV activity at 125.1 g/H / SEPTTR 1DP, LV activity at 125.1 g/H (% Control rating) / SEPTTR 3DC, LV activity at 125.1 g/H (% Control rating): low volume application; for LV activity at 125.1 g/H SEPTTR 1DP (disease control rating) / SEPTTR 1DP disease control rating, HV activity / SEPTTR 1DP, LV activity at 125.1 g/H (% Control rating): 1 Day Protectant; for LV activity at 125.1 g/H SEPTTR 1DP (disease control rating) / LV activity at 125.1 g/H SEPTTR 3DC (disease control rating) / SEPTTR 1DP disease control rating, HV activity / SEPTTR 3DC disease control rating, HV activity: wheat leaf blotch; for LV activity at 125.1 g/H SEPTTR 3DC (disease control rating) / SEPTTR 3DC disease control rating, HV activity / SEPTTR 3DC, LV activity at 125.1 g/H (% Control rating): 3 Day Curative; for SEPTTR 1DP disease control rating, HV activity / SEPTTR 3DC disease control rating, HV activity: HV application at 100 ppm; for SEPTTR 1DP disease control rating, LV activity at 125.1 g/H: 1 day protectant; for SEPTTR 3DC disease control rating, LV activity at 125.1 g/H: 3 day curative

COc1ccnc(C(=O)N[C@@H](C)C(=O)O[C@@H](C)[C@@H](CC(C)C)OCC(C)C)c1OC(C)=O [Cmpd 1111]
LV activity at 125.1 g/H PUCCRT 1DP (disease control rating) (Puccinia triticina): A (> 80) | LV activity at 125.1 g/H PUCCRT 3DC (disease control rating) (Puccinia triticina): A (> 80) | LV activity at 125.1 g/H SEPTTR 1DP (disease control rating) (Zymoseptoria tritici): B (≤ 80) | LV activity at 125.1 g/H SEPTTR 3DC (disease control rating) (Zymoseptoria tritici): A (> 80)

COc1ccnc(C(=O)N[C@@H](C)C(=O)O[C@@H](C)[C@@H](Cc2ccccc2)OC)c1O [Cmpd 342]
PUCCRT 1DP disease control rating, HV activity (Puccinia triticina): B (≤ 80) | PUCCRT 3DC disease control rating, HV activity (Puccinia triticina): A (> 80) | SEPTTR 1DP disease control rating, HV activity (Zymoseptoria tritici): D | SEPTTR 3DC disease control rating, HV activity (Zymoseptoria tritici): B (≤ 80)

CCC(CC)[C@@H](Oc1cccc(-c2ccccc2)c1)[C@H](C)OC(=O)[C@@H](NC(=O)c1nccc(OC)c1OC(C)=O)C(C)C [Cmpd 664]
PUCCRT 1DP disease control rating, LV activity at 125.1 g/H (Puccinia triticina): A (> 80) | PUCCRT 3DC disease control rating, LV activity at 125.1 g/H (Puccinia triticina): D | SEPTTR 1DP disease control rating, LV activity at 125.1 g/H (Zymoseptoria tritici): D | SEPTTR 3DC disease control rating, LV activity at 125.1 g/H (Zymoseptoria tritici): D

COCC(OC(=O)C(C)NC(=O)c1nccc(OC)c1OCOC(C)=O)C(Oc1ccccc1)C(C)C (centres unmarked) [Cmpd 1095]
LV activity at 125.1 g/H PUCCRT 1DP (disease control rating) (Puccinia triticina): B (≤ 80) | LV activity at 125.1 g/H PUCCRT 3DC (disease control rating) (Puccinia triticina): B (≤ 80) | LV activity at 125.1 g/H SEPTTR 1DP (disease control rating) (Zymoseptoria tritici): D | LV activity at 125.1 g/H SEPTTR 3DC (disease control rating) (Zymoseptoria tritici): D

CCCC(OC(=O)C(C)NC(=O)c1nccc(OC)c1OCOC(C)=O)C(Oc1ccccc1)C(C)C (centres unmarked) [Cmpd 1093]
LV activity at 125.1 g/H PUCCRT 1DP (disease control rating) (Puccinia triticina): D | LV activity at 125.1 g/H PUCCRT 3DC (disease control rating) (Puccinia triticina): D | LV activity at 125.1 g/H SEPTTR 1DP (disease control rating) (Zymoseptoria tritici): D | LV activity at 125.1 g/H SEPTTR 3DC (disease control rating) (Zymoseptoria tritici): D

COc1ccnc(C(=O)N[C@@H](C)C(=O)O[C@@H](C)[C@H](OC(=O)C(C)C)C(C)C)c1OCOC(C)=O [Cmpd 623]
PUCCRT 1DP, LV activity at 125.1 g/H (% Control rating) (Puccinia triticina): A (> 80) | PUCCRT 3DC, LV activity at 125.1 g/H (% Control rating) (Puccinia triticina): A (> 80) | SEPTTR 1DP, LV activity at 125.1 g/H (% Control rating) (Zymoseptoria tritici): D | SEPTTR 3DC, LV activity at 125.1 g/H (% Control rating) (Zymoseptoria tritici): B (≤ 80)

CCCO[C@@H]([C@H](C)OC(=O)[C@H](C)NC(=O)c1nccc(OC)c1OCOC(C)=O)[C@H](CC)Oc1ccccc1 [Cmpd 510]
PUCCRT 1DP, LV activity at 125.1 g/H (% Control rating) (Puccinia triticina): A (> 80) | PUCCRT 3DC, LV activity at 125.1 g/H (% Control rating) (Puccinia triticina): A (> 80) | SEPTTR 1DP, LV activity at 125.1 g/H (% Control rating) (Zymoseptoria tritici): A (> 80) | SEPTTR 3DC, LV activity at 125.1 g/H (% Control rating) (Zymoseptoria tritici): B (≤ 80)

CCCOC(CC)C(Oc1ccccc1)C(C)OC(=O)C(C)(C)NC(=O)c1nccc(OC)c1O (centres unmarked) [Cmpd 417]
PUCCRT 1DP disease control rating, HV activity (Puccinia triticina): D | PUCCRT 3DC disease control rating, HV activity (Puccinia triticina): D | SEPTTR 1DP disease control rating, HV activity (Zymoseptoria tritici): D | SEPTTR 3DC disease control rating, HV activity (Zymoseptoria tritici): B (≤ 80)

COc1ccnc(C(=O)N[C@@H](C)C(=O)O[C@@H](C)[C@H](Oc2ccc(Cl)cc2Cl)C(C)C)c1OC(C)=O [Cmpd 567]
PUCCRT 1DP, LV activity at 125.1 g/H (% Control rating) (Puccinia triticina): A (> 80) | PUCCRT 3DC, LV activity at 125.1 g/H (% Control rating) (Puccinia triticina): A (> 80) | SEPTTR 1DP, LV activity at 125.1 g/H (% Control rating) (Zymoseptoria tritici): D | SEPTTR 3DC, LV activity at 125.1 g/H (% Control rating) (Zymoseptoria tritici): A (> 80)

COc1ccnc(C(=O)N[C@@H](C)C(=O)O[C@@H](C)[C@H](OCC2CC2)C2CCCCC2)c1OCOC(C)=O [Cmpd 881]
PUCCRT 1DP disease control rating, LV activity at 125.1 g/H (Puccinia triticina): A (> 80) | PUCCRT 3DC disease control rating, LV activity at 125.1 g/H (Puccinia triticina): A (> 80) | SEPTTR 1DP disease control rating, LV activity at 125.1 g/H (Zymoseptoria tritici): B (≤ 80) | SEPTTR 3DC disease control rating, LV activity at 125.1 g/H (Zymoseptoria tritici): B (≤ 80)

COc1ccnc(C(=O)N[C@@H](C)C(=O)O[C@@H](C)[C@H](Oc2cccc(-c3ccccc3)c2)C(C)C)c1OCOC(C)=O [Cmpd 613]
PUCCRT 1DP, LV activity at 125.1 g/H (% Control rating) (Puccinia triticina): A (> 80) | PUCCRT 3DC, LV activity at 125.1 g/H (% Control rating) (Puccinia triticina): A (> 80) | SEPTTR 1DP, LV activity at 125.1 g/H (% Control rating) (Zymoseptoria tritici): B (≤ 80) | SEPTTR 3DC, LV activity at 125.1 g/H (% Control rating) (Zymoseptoria tritici): B (≤ 80)
